PMC10786919, “Design-rules for stapled peptides with in vivo activity and their application to Mdm2/X antagonists” (Nature Communications, 2024)
≈ marks a conversion by molar mass, not a printed value. Where two headings read alike, the source gives them in different places. Positions of bridges follow the written chain, without caps; N, C: chain ends. Non-standard residues stand in square brackets, D forms with d. Residues, ends and D or L forms follow the SMILES beside them. dPhe(4-CF3) = N[C@H](Cc1ccc(C(F)(F)F)cc1)C(=O)O; dTrp(6-F) = N[C@H](Cc1c[nH]c2cc(F)ccc12)C(=O)O; Lys(N3) = [N-]=[N+]=NCCCC[C@H](N)C(=O)O; R8 = C=CCCCCCC[C@@](C)(N)C(=O)O; Cba = N[C@@H](CC1CCC1)C(=O)O; R5 = C=CCCC[C@@](C)(N)C(=O)O; S5 = C=CCCC[C@](C)(N)C(=O)O; βAla = NCCC(=O)O

Experiments:
[1] = test system: Jump-In T-REx CHO-K1 BLA cells; assay: cells; assay type: cell-based
[2] = Solubility assay (kinetic solubility, PBS pH 7); assay type: physicochemical
Method in brief: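 Reference standards were made by diluting the 10 mM stock to 100 µM in acetonitrile:methanol:DMSO 10:80:10. Solubility in µM was calculated as the sample peak area divided by the standard peak area, multiplied by the standard concentration.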

[3] = Nanoclick permeability assay
Method in brief: (§1)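 Azido-peptide permeability was read as loss of NanoBRET signal (donor 450 nm, acceptor 610 nm) after adding NanoBret618-azide at 10 μM final.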

[4] = test system: cells transiently transfected with the NanoLuc-HaloTag vector; assay: Nanoclick permeability assay; conditions: 4Hr
Method in brief: as §1

[5] = physchem
[6] = Experimental LogD (partition coefficient); conditions: for logD: not stated, Partition Coeff LogD
[7] = Circular dichroism (CD) helicity; assay type: physicochemical
Method: A total of 5 µL of the 10 mM stock peptide was mixed with 45 µL of 100% methanol, and dried for 2 h in the SpeedVac concentrator (Thermo Scientific). The dried peptide was reconstituted in a buffer (1 mM Hepes pH 7.4 and 5% methanol) to a concentration of 1 mM. The peptide sample was placed in a quartz cuvette with a path length of 0.2 cm. The peptide concentration was determined by the absorbance of the peptide at […]. The CD spectrum was recorded from 300 to 190 nm using the Chirascan-plus qCD machine (Applied Photophysics, Surrey, UK), at 25 °C. All experiments were done in duplicates. The CD spectrum was converted to mean residue ellipticity before deconvolution and estimation of the secondary structure components of the peptide using the CDNN software (distributed by Applied Photophysics). Measurements were taken at least twice and were reported as arithmetic means.

[8] = physchem; remark: listed apart in the source
[9] = physchem; remark: listed apart in the source
[10] = 0% FBS 4Hr, read-out: TETCHO: Counterscreen EC50
[11] = 10% FBS 16Hr, read-out: TETCHO: Counterscreen EC50
[12] = pH 7, aqueous buffer, kinetic from dmso stock, pH 7, PBS, read-out: Solubility
[13] = 4 hours, 0% serum, read-out: TETCHO Counterscreen EC50
[14] = Nanoclick permeability assay EC50

Row | SMILES | TETCHO: Counterscreen % Effect ([1]; 0% FBS 4Hr) [%] | EC50 [1, 10] [µM] | TETCHO: Counterscreen % Effect ([1]; 10% FBS 16Hr) [%] | EC50 [1, 11] [µM] | solubility kinetic ([2]; pH 7, Solubility) [µM] | cell entry EC50 [3] [µM] | Nanoclick permeability assay % Effect [4] [%] | EPSA [5] [A^2] | logD [6] | TETCHO: Counterscreen % Effect ([1]; 0% FBS 16Hr) [%] | solubility kinetic [2, 12] [µM] | CD % Helicity [7] [%] | EPSA [8] [A^2] | EC50 [1, 13] [µM] | cell entry EC50 [3, 14] [µM] | Solubility [2] | Solubility ([2]; pH 7, PBS) | Aqueous solution helicity ([7]; circular dichroism) [%] | Partition Coeff LogD [6] | EPSA [9] [A^2]
1 | CC(C)C[C@@H](NC(=O)[C@@]1(C)CCCC=CCCC[C@@](C)(NC(=O)[C@@H](C)NC(=O)[C@@H](Cc2ccc(O)cc2)NC(=O)[C@@H](Cc2c[nH]c3cc(F)ccc23)NC(=O)[C@@H](C)NC(=O)[C@H](N)[C@H](C)O)C(=O)N[C@H](Cc2ccc(C(F)(F)F)cc2)C(=O)N[C@H](CCC(=O)O)C(=O)N[C@H](CCC(N)=O)C(=O)N1)C(=O)N[C@H](CO)C(N)=O [MP-795] (H-[dT][dA][dTrp(6-F)][dY][dA][R5][dPhe(4-CF3)][dE][dQ][R5][dL][dS]-NH2; staple 6-10) | 35.97 | > 50.4 | 0.2467 | > 50.4 | 1 (≈ 1.55 µg/mL) | > 10 | 23.68 | 234 | 2.32 | – | – | – | – | – | – | – | – | – | – | –
2 | CC(=O)N[C@@H](CC(C)C)C(=O)N[C@H](C(=O)N[C@@H](Cc1ccccc1)C(=O)N[C@]1(C)CCCCCCC=CCCC[C@@](C)(C(=O)N[C@@H](CO)C(=O)N[C@@H](C)C(=O)N[C@@H](C)C(N)=O)NC(=O)[C@@H](CC2CCC2)NC(=O)[C@H](CC(C)C)NC(=O)[C@H](CCC(N)=O)NC(=O)[C@H](Cc2c[nH]c3ccccc23)NC(=O)[C@H](Cc2ccc(O)cc2)NC(=O)[C@H](CCC(=O)O)NC1=O)[C@@H](C)O [MP-009] | 4.797 | > 50.6 | – | – | – | – | 22.02 | – | 2.7 | -1.31 | 79.3 (≈ 142 µg/mL) | 23.85 | 204 | – | – | – | – | – | – | –
3 | CC(=O)N[C@@H](C(=O)N[C@H](C)C(=O)N[C@H](Cc1c[nH]c2cc(F)ccc12)C(=O)N[C@H](Cc1ccc(O)cc1)C(=O)N[C@H](C)C(=O)N[C@]1(C)CCCC=CCCC[C@](C)(C(=O)N[C@H](CC(C)C)C(=O)N[C@H](CO)C(=O)N[C@H](C)C(=O)N[C@H](C)C(=O)N[C@H](C)C(=O)N[C@H](C)C(=O)N[C@H](C)C(=O)N[C@H](C)C(=O)N[C@H](C)C(=O)N[C@H](C)C(=O)N[C@H](C)C(N)=O)NC(=O)[C@@H](CCC(N)=O)NC(=O)[C@@H](CCC(=O)O)NC(=O)[C@@H](Cc2ccc(C(F)(F)F)cc2)NC1=O)[C@H](C)O [MP-1230] (Ac-[dT][dA][dTrp(6-F)][dY][dA][R5][dPhe(4-CF3)][dE][dQ][R5][dL][dS][dA][dA][dA][dA][dA][dA][dA][dA][dA]-NH2; staple 6-10) | 16.32 | > 50.4 | -1.934 | > 50.4 | – | – | – | 190 | – | – | 16 (≈ 35.7 µg/mL) | 8.3 | – | – | – | – | – | – | – | –
4 | CC(=O)N[C@@H](C(=O)N[C@H](C)C(=O)N[C@H](Cc1c[nH]c2cc(F)ccc12)C(=O)N[C@H](Cc1ccc(O)cc1)C(=O)N[C@H](C)C(=O)N[C@]1(C)CCCC=CCCC[C@](C)(C(=O)N[C@H](CC(C)C)C(=O)N[C@H](CO)C(=O)N[C@H](C)C(=O)N[C@H](C)C(=O)N[C@H](C)C(=O)N[C@H](C)C(=O)N[C@H](C)C(=O)N[C@H](C)C(N)=O)NC(=O)[C@@H](CCC(N)=O)NC(=O)[C@@H](CCC(=O)O)NC(=O)[C@@H](Cc2ccc(C(F)(F)F)cc2)NC1=O)[C@H](C)O [MP-042] (Ac-[dT][dA][dTrp(6-F)][dY][dA][R5][dPhe(4-CF3)][dE][dQ][R5][dL][dS][dA][dA][dA][dA][dA][dA]-NH2; staple 6-10) | 12.4 | > 50.4 | 2.411 | > 50.4 | – | > 10 | 1.941 | – | – | – | – | 57.4 | – | > 50 | – | – | – | – | – | –
5 | CC(=O)N[C@@H](C(=O)N[C@H](C)C(=O)N[C@H](Cc1c[nH]c2cc(F)ccc12)C(=O)N[C@H](Cc1ccc(O)cc1)C(=O)N[C@H](C)C(=O)N[C@]1(C)CCCC=CCCC[C@](C)(C(=O)N[C@H](CC(C)C)C(=O)N[C@H](CO)C(=O)N[C@H](C)C(=O)N[C@H](C)C(=O)N[C@H](C)C(N)=O)NC(=O)[C@@H](CCC(N)=O)NC(=O)[C@@H](CCC(=O)O)NC(=O)[C@@H](Cc2ccc(C(F)(F)F)cc2)NC1=O)[C@H](C)O [MP-0230] (Ac-[dT][dA][dTrp(6-F)][dY][dA][R5][dPhe(4-CF3)][dE][dQ][R5][dL][dS][dA][dA][dA]-NH2; staple 6-10) | 12.86 | > 50.4 | -3.99 | > 50.4 | – | – | 30.67 | 190 | – | – | 140 (≈ 253 µg/mL) | 49.95 | – | – | > 10 | – | – | – | – | –
6 | CC(=O)N[C@@H](CCCCN=[N+]=[N-])C(=O)NCCC(=O)N[C@@H](CC(C)C)C(=O)N[C@H](C(=O)N[C@@H](Cc1ccccc1)C(=O)N[C@]1(C)CCCCCCC=CCCC[C@@](C)(C(=O)N2CCC[C@@H]2C(=O)N2CCC[C@@H]2C(=O)N2CCC[C@@H]2C(=O)N2CCC[C@@H]2C(=O)N2CCC[C@@H]2C(=O)N2CCC[C@@H]2C(N)=O)NC(=O)[C@H](CC2CCC2)NC(=O)[C@H](CCC(N)=O)NC(=O)[C@H](C)NC(=O)[C@H](Cc2c[nH]c3ccccc23)NC(=O)[C@H](Cc2ccc(O)cc2)NC(=O)[C@H](CCC(=O)O)NC1=O)[C@@H](C)O [MP-896] | -4.745 | > 50.4 | -12.59 | > 50.4 | – | 1.42 | 114.3 | – | – | – | – | 19.15 | – | – | – | P.B. | Poorly Behaved | 19.15 | Poorly Behaved | –
7 | CC(=O)N[C@@H](C(=O)N[C@H](C)C(=O)N[C@H](Cc1c[nH]c2cc(F)ccc12)C(=O)N[C@H](Cc1ccc(O)cc1)C(=O)N[C@H](C)C(=O)N[C@]1(C)CCCC=CCCC[C@](C)(C(=O)N[C@H](CC(C)C)C(=O)N[C@H](CO)C(N)=O)NC(=O)[C@@H](CCC(N)=O)NC(=O)[C@@H](CCC(=O)O)NC(=O)[C@@H](Cc2ccc(C(F)(F)F)cc2)NC1=O)[C@H](C)O [MP-797] (Ac-[dT][dA][dTrp(6-F)][dY][dA][R5][dPhe(4-CF3)][dE][dQ][R5][dL][dS]-NH2; staple 6-10) | 17.03 | > 50.4 | -11.41 | > 50.4 | – | > 10 | 69.79 | 198 | – | – | – | 26.6 | – | > 50 | – | – | – | – | – | –
8 | CC(=O)N[C@@H](CCCCN=[N+]=[N-])C(=O)NCCC(=O)N[C@@H](CC(C)C)C(=O)N[C@H](C(=O)N[C@@H](Cc1ccccc1)C(=O)N[C@]1(C)CCCCCCC=CCCC[C@@](C)(C(=O)N[C@@H](CO)C(=O)N[C@@H](C)C(=O)N[C@@H](C)C(N)=O)NC(=O)[C@H](CC2CCC2)NC(=O)[C@H](CCC(N)=O)NC(=O)[C@H](C)NC(=O)[C@H](Cc2c[nH]c3ccccc23)NC(=O)[C@H](Cc2ccc(O)cc2)NC(=O)[C@H](Cc2c[nH]c3ccccc23)NC1=O)[C@@H](C)O [MP-185] (Ac-[Lys(N3)][βAla]LTF[R8]WYWAQ[Cba][S5]SAA-NH2; staple 6-13) | 4.64 | > 50 | – | – | – | – | 140.4 | – | 4 | 9.8 | 2 (≈ 4.05 µg/mL) | – | 226 | – | 0.0774 | – | – | – | – | –
9 | CC(=O)N[C@@H](CCCCN=[N+]=[N-])C(=O)NCCC(=O)N[C@@H](CC(N)=O)C(=O)N[C@H](C(=O)N[C@@H](Cc1ccccc1)C(=O)N[C@]1(C)CCCCCCC=CCCC[C@@](C)(C(=O)N[C@@H](CC(N)=O)C(=O)N[C@@H](CC(N)=O)C(=O)N[C@@H](CC(N)=O)C(N)=O)NC(=O)[C@H](CC2CCC2)NC(=O)[C@H](CCC(N)=O)NC(=O)[C@H](CC(N)=O)NC(=O)[C@H](Cc2c[nH]c3ccccc23)NC(=O)[C@H](Cc2ccc(O)cc2)NC(=O)[C@H](CC(N)=O)NC1=O)[C@@H](C)O [MP-359, azide-ATSP-7041 (L1N, E5N, A8N, S12N, A13N, A14N)] (Ac-[Lys(N3)][βAla]NTF[R8]NYWNQ[Cba][S5]NNN-NH2; staple 6-13) | 8.184 | > 50.6 | – | – | – | 0.38 | 112.9 | – | 2.12 | – | 53.7 (≈ 113 µg/mL) | 39.55 | – | – | – | – | – | – | – | 238
